Source: the supplement of paper PMC10307832

Legend:
Assay in all cases: relative viability (nuclei count vs DMSO), 5 days (fraction); higher = more cells survive
[1] = compound: C#Cc1cccc(Nc2ncnc3cc(OCCOC)c(OCCOC)cc23)c1 [Erlotinib] + Cc1cc(Nc2cc(N3CCN(C)CC3)nc(Sc3ccc(NC(=O)C4CC4)cc3)n2)n[nH]1 [Tozasertib] (partner 0.1 µM)
Summary of the method: (§1)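 Relative viability was taken as the ratio of nuclei in treated wells to nuclei in vehicle wells. Lung cancer cell lines in 1536-well plates received compounds by pin tool one day after seeding, either one drug alone or a fixed anchor-drug dose plus five library-drug doses (not always all listed) in √10 steps. Nuclei were counted on 4× images after 5 days of treatment, and values are medians of duplicate plates.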

[2] = compound: O=C(Nc1c[nH]nc1-c1nc2ccc(CN3CCOCC3)cc2[nH]1)NC1CC1 [AT9283] + CC1(C)CCC(c2ccc(Cl)cc2)=C(CN2CCN(c3ccc(C(=O)NS(=O)(=O)c4ccc(N[C@H](CCN5CCOCC5)CSc5ccccc5)c(S(=O)(=O)C(F)(F)F)c4)cc3)CC2)C1 [Navitoclax] (partner 0.5 µM)
Summary of the method: as §1

[3] = compound: C#Cc1cccc(Nc2ncnc3cc(OCCOC)c(OCCOC)cc23)c1 [Erlotinib] + O=C(CCCCCCC(=O)Nc1ccccc1)NO [Vorinostat] (partner 1 µM)
Summary of the method: as §1

[4] = compound: C#Cc1cccc(Nc2ncnc3cc(OCCOC)c(OCCOC)cc23)c1 [Erlotinib] + CC(=O)Nc1cccc(-n2c(=O)n(C3CC3)c(=O)c3c(Nc4ccc(I)cc4F)n(C)c(=O)c(C)c32)c1 [Trametinib] (partner 0.02 µM)
Summary of the method: as §1

[5] = compound: C#Cc1cccc(Nc2ncnc3cc(OCCOC)c(OCCOC)cc23)c1 [Erlotinib] + CS(=O)(=O)CCNCc1ccc(-c2ccc3ncnc(Nc4ccc(OCc5cccc(F)c5)c(Cl)c4)c3c2)o1 [Lapatinib] (partner 2 µM)
Summary of the method: as §1

LC-2-ad was tested, and the relative viability ([1]; first compound 0.02 µM) was 0.484, the relative viability ([1]; first compound 0.2 µM) was 0.383 and the relative viability ([1]; first compound 0.6325 µM) was 0.414. It also gave a relative viability ([1]; first compound 2 µM) of 0.345, a relative viability ([2]; first compound 0.003 µM) of 0.506 and a relative viability ([2]; first compound 0.03 µM) of 0.232. It also gave a relative viability ([2]; first compound 0.09487 µM) of 0.0899, a relative viability ([2]; first compound 0.3 µM) of 0.101 and a relative viability ([3]; first compound 0.02 µM) of 0.731. It also gave a relative viability ([3]; first compound 0.2 µM) of 0.794, a relative viability ([3]; first compound 0.6325 µM) of 0.75 and a relative viability ([3]; first compound 2 µM) of 0.589. The relative viability ([4]; first compound 0.02 µM) was 0.902, the relative viability ([4]; first compound 0.2 µM) was 0.907 and the relative viability ([4]; first compound 0.6325 µM) was 0.87. The relative viability ([4]; first compound 2 µM) was 0.775, the relative viability ([5]; first compound 0.02 µM) was 1.03 and the relative viability ([5]; first compound 0.2 µM) was 0.896. For the same cell line, the relative viability ([5]; first compound 0.6325 µM) was 1.05 and the relative viability ([5]; first compound 2 µM) was 0.861.

Cell Line LCLC-97TM1 has a relative viability ([1]; first compound 0.02 µM) of 0.285, a relative viability ([1]; first compound 0.2 µM) of 0.204 and a relative viability ([1]; first compound 0.6325 µM) of 0.203. It also gave a relative viability ([1]; first compound 2 µM) of 0.172, a relative viability ([2]; first compound 0.003 µM) of 0.335 and a relative viability ([2]; first compound 0.03 µM) of 0.117. For the same cell line, the relative viability ([2]; first compound 0.09487 µM) was 0.107, the relative viability ([2]; first compound 0.3 µM) was 0.144 and the relative viability ([3]; first compound 0.2 µM) was 0.503. The relative viability ([3]; first compound 0.6325 µM) was 1.01, the relative viability ([3]; first compound 2 µM) was 0.596 and the relative viability ([4]; first compound 0.02 µM) was 0.197. For the same cell line, the relative viability ([4]; first compound 0.2 µM) was 0.197, the relative viability ([4]; first compound 0.6325 µM) was 0.163 and the relative viability ([4]; first compound 2 µM) was 0.168. The relative viability ([5]; first compound 0.02 µM) was 1.36, the relative viability ([5]; first compound 0.6325 µM) was 0.929 and the relative viability ([5]; first compound 2 µM) was 0.846.

Cell Line LK-2 has a relative viability ([1]; first compound 0.02 µM) of 0.196, a relative viability ([1]; first compound 0.2 µM) of 0.17 and a relative viability ([1]; first compound 0.6325 µM) of 0.157. For the same cell line, the relative viability ([1]; first compound 2 µM) was 0.158, the relative viability ([2]; first compound 0.003 µM) was 0.803 and the relative viability ([2]; first compound 0.03 µM) was 0.493. For the same cell line, the relative viability ([2]; first compound 0.09487 µM) was 0.169, the relative viability ([2]; first compound 0.3 µM) was 0.168 and the relative viability ([3]; first compound 0.02 µM) was 0.264. The relative viability ([3]; first compound 0.2 µM) was 0.454, the relative viability ([3]; first compound 0.6325 µM) was 0.419 and the relative viability ([3]; first compound 2 µM) was 0.304. It also gave a relative viability ([4]; first compound 0.02 µM) of 0.867, a relative viability ([4]; first compound 0.2 µM) of 0.543 and a relative viability ([4]; first compound 0.6325 µM) of 0.842. For the same cell line, the relative viability ([4]; first compound 2 µM) was 0.586, the relative viability ([5]; first compound 0.02 µM) was 0.971 and the relative viability ([5]; first compound 0.2 µM) was 0.875. The relative viability ([5]; first compound 0.6325 µM) was 1.17 and the relative viability ([5]; first compound 2 µM) was 0.844.

LOU-NH91 was tested, and the relative viability ([1]; first compound 0.02 µM) was 0.564, the relative viability ([1]; first compound 0.2 µM) was 0.472 and the relative viability ([1]; first compound 0.6325 µM) was 0.491. It also gave a relative viability ([1]; first compound 2 µM) of 0.424, a relative viability ([2]; first compound 0.003 µM) of 0.735 and a relative viability ([2]; first compound 0.03 µM) of 0.605. It also gave a relative viability ([2]; first compound 0.09487 µM) of 0.37, a relative viability ([2]; first compound 0.3 µM) of 0.283 and a relative viability ([3]; first compound 0.02 µM) of 0.803. The relative viability ([3]; first compound 0.2 µM) was 0.713, the relative viability ([3]; first compound 0.6325 µM) was 0.785 and the relative viability ([3]; first compound 2 µM) was 0.703. The relative viability ([4]; first compound 0.02 µM) was 0.759, the relative viability ([4]; first compound 0.2 µM) was 0.57 and the relative viability ([4]; first compound 0.6325 µM) was 0.739. The relative viability ([4]; first compound 2 µM) was 0.644, the relative viability ([5]; first compound 0.02 µM) was 0.735 and the relative viability ([5]; first compound 0.2 µM) was 0.723. The relative viability ([5]; first compound 0.6325 µM) was 0.786 and the relative viability ([5]; first compound 2 µM) was 0.734.

For LU99A, the relative viability ([1]; first compound 0.02 µM) was 0.305, the relative viability ([1]; first compound 0.2 µM) was 0.271 and the relative viability ([1]; first compound 0.6325 µM) was 0.263. For the same cell line, the relative viability ([1]; first compound 2 µM) was 0.221, the relative viability ([2]; first compound 0.003 µM) was 0.766 and the relative viability ([2]; first compound 0.03 µM) was 0.243. It also gave a relative viability ([2]; first compound 0.09487 µM) of 0.142, a relative viability ([2]; first compound 0.3 µM) of 0.151 and a relative viability ([3]; first compound 0.02 µM) of 0.505. The relative viability ([3]; first compound 0.2 µM) was 0.507, the relative viability ([3]; first compound 0.6325 µM) was 0.49 and the relative viability ([3]; first compound 2 µM) was 0.468. For the same cell line, the relative viability ([4]; first compound 0.02 µM) was 0.705, the relative viability ([4]; first compound 0.2 µM) was 0.583 and the relative viability ([4]; first compound 0.6325 µM) was 0.643. It also gave a relative viability ([4]; first compound 2 µM) of 0.484, a relative viability ([5]; first compound 0.02 µM) of 1.1 and a relative viability ([5]; first compound 0.2 µM) of 0.999. It also gave a relative viability ([5]; first compound 0.6325 µM) of 1.05 and a relative viability ([5]; first compound 2 µM) of 0.768.

Cell Line LXF-289 has a relative viability ([1]; first compound 0.02 µM) of 0.195, a relative viability ([1]; first compound 0.2 µM) of 0.218 and a relative viability ([1]; first compound 0.6325 µM) of 0.208. It also gave a relative viability ([1]; first compound 2 µM) of 0.117, a relative viability ([2]; first compound 0.003 µM) of 0.93 and a relative viability ([2]; first compound 0.03 µM) of 0.665. For the same cell line, the relative viability ([2]; first compound 0.09487 µM) was 0.123, the relative viability ([2]; first compound 0.3 µM) was 0.133 and the relative viability ([3]; first compound 0.02 µM) was 0.824. For the same cell line, the relative viability ([3]; first compound 0.2 µM) was 0.762, the relative viability ([3]; first compound 0.6325 µM) was 0.66 and the relative viability ([3]; first compound 2 µM) was 0.758. For the same cell line, the relative viability ([4]; first compound 0.02 µM) was 0.639, the relative viability ([4]; first compound 0.2 µM) was 0.672 and the relative viability ([4]; first compound 0.6325 µM) was 0.647. The relative viability ([4]; first compound 2 µM) was 0.684, the relative viability ([5]; first compound 0.02 µM) was 0.89 and the relative viability ([5]; first compound 0.2 µM) was 0.953. It also gave a relative viability ([5]; first compound 0.6325 µM) of 0.899 and a relative viability ([5]; first compound 2 µM) of 0.889.

In the case of NCI-H23, the relative viability ([1]; first compound 0.02 µM) is reported as 0.387, the relative viability ([1]; first compound 0.2 µM) is reported as 0.344 and the relative viability ([1]; first compound 0.6325 µM) is reported as 0.299. The relative viability ([1]; first compound 2 µM) was 0.26, the relative viability ([2]; first compound 0.003 µM) was 0.741 and the relative viability ([2]; first compound 0.03 µM) was 0.538. For the same cell line, the relative viability ([2]; first compound 0.09487 µM) was 0.423, the relative viability ([2]; first compound 0.3 µM) was 0.174 and the relative viability ([3]; first compound 0.02 µM) was 0.704. The relative viability ([3]; first compound 0.2 µM) was 0.502, the relative viability ([3]; first compound 0.6325 µM) was 0.666 and the relative viability ([3]; first compound 2 µM) was 0.485. For the same cell line, the relative viability ([4]; first compound 0.02 µM) was 0.36, the relative viability ([4]; first compound 0.2 µM) was 0.349 and the relative viability ([4]; first compound 0.6325 µM) was 0.385. The relative viability ([4]; first compound 2 µM) was 0.306, the relative viability ([5]; first compound 0.02 µM) was 1.29 and the relative viability ([5]; first compound 0.2 µM) was 0.993. It also gave a relative viability ([5]; first compound 0.6325 µM) of 1.27 and a relative viability ([5]; first compound 2 µM) of 0.977.

NCI-H322M showed a relative viability ([1]; first compound 0.02 µM) of 0.42, a relative viability ([1]; first compound 0.2 µM) of 0.374 and a relative viability ([1]; first compound 0.6325 µM) of 0.331. The relative viability ([1]; first compound 2 µM) was 0.314, the relative viability ([2]; first compound 0.003 µM) was 1.27 and the relative viability ([2]; first compound 0.03 µM) was 0.802. For the same cell line, the relative viability ([2]; first compound 0.09487 µM) was 0.731, the relative viability ([2]; first compound 0.3 µM) was 0.436 and the relative viability ([3]; first compound 0.02 µM) was 0.832. The relative viability ([3]; first compound 0.2 µM) was 0.716, the relative viability ([3]; first compound 0.6325 µM) was 0.688 and the relative viability ([3]; first compound 2 µM) was 0.546. The relative viability ([4]; first compound 0.02 µM) was 0.472, the relative viability ([4]; first compound 0.2 µM) was 0.461 and the relative viability ([4]; first compound 0.6325 µM) was 0.462. For the same cell line, the relative viability ([4]; first compound 2 µM) was 0.445, the relative viability ([5]; first compound 0.02 µM) was 0.551 and the relative viability ([5]; first compound 0.2 µM) was 0.604. For the same cell line, the relative viability ([5]; first compound 0.6325 µM) was 0.555 and the relative viability ([5]; first compound 2 µM) was 0.541.
